Results published in patent publication US20250268166A1, “ALS-INHIBITOR HERBICIDE TOLERANT BETA VULGARIS HYBRIDS WITH INCREASED HETEROSIS” (BAYER AKTIENGESELLSCHAFT, priority 2021, published 2025).

System: B. vulgaris plants comprising the BvALS_W569L allele
Test: Sensitivity of B. vulgaris plants to ALS inhibitor herbicide (BvALS_W569L allele vs wild type allele)
Assay type: in vivo, Beta vulgaris
Source text: Beta vulgaris plants comprising the BvALS_W569L allele are less sensitive to an ALS inhibitor, more preferably it is at least 100 times less sensitive, more preferably, 500 times, even more preferably 1000 times and most preferably […] 2000 times than Beta vulgaris plants comprising the wild-type allele. Less sensitive when used herein may, vice versa, be seen as “more tolerable” or “more resistant”. Similarly, “more tolerable” or “more resistant” may, vice versa, be seen as “less sensitive”. For example, B. vulgaris plants comprising the BvALS_W569L allele are at least 2000 times less sensitive to the ALS inhibitor herbicide foramsulfuron (a member of the ALS inhibitor subclass “sulfonylurea herbicides”) compared to B. vulgaris plants comprising a BvALS wild type allele.

Question: COc1cc(OC)nc(NC(=O)NS(=O)(=O)c2cc(NC=O)ccc2C(=O)N(C)C)n1 [foramsulfuron] was tested. Which “times less sensitive to the ALS inhibitor herbicide compared to B. vulgaris plants comprising a BvALS wild type allele” value did it give?
Answer: at least 2000 times
